Where a name gives a salt, the structure may show the parent alone.
Columns and labels:
[1] = Solid stability of crystal form, XRPD after stress conditions; type: physicochemical
[2] = Solid stability (10 days), impurity increase by HPLC; type: physicochemical
[3] = Thermodynamic solubility in different media (FaSSGF, FaSSIF, FeSSIF, water) at 37° C.; type: physicochemical; conditions: 24 hours
human KRAS G12C protein = target: T1, human KRAS G12C protein (Homo sapiens, UniProt P01116, G12C); assay: Thermal shift: melting temperature of KRAS G12C protein; type: binding; conditions: KRAS G12C protein 5.37 μM with compound 10 μM, 1 hour
T1 construct: purchased Beijing SinoBiological Co., Ltd. 12259-H07E2
Protocol: In this experiment, the thermal shift method was used to test the degree of change in the melting temperature (Tm) of the KRAS G12C protein before and after the binding of the compound, in order to characterize the ability of the compound to improve the stability of the KRAS G12C protein.
The specific experiment operation was as follows: • A solution containing […] (pH 7.5), 1 mM DTT, 5× SYPRO Orange and 150 mM NaCl was prepared as the experimental buffer, and a final concentration of 5.37 μM human KRAS G12C protein was added thereto. The reaction mixture was divided into 8 rows of PCR tubes, each 19.5 μL, and 0.5 μL of the test compound or DMSO were added respectively, so that the total reaction system was 20 μL, the final concentration of the compound was 10 μM, and 2.5% DMSO was set as the solvent control. After incubating at room temperature in the dark for 1 hour, the PCR tube was put into the PCR instrument, QuantStudio Software v1.3 was opened, and the melting temperature of KRAS G12C protein in different treatment groups was detected by melt curve function (heating from 25° C. to 95° C., 0.03° C./s).
The experimental data file of PCR instrument was imported into thermal shift software, and the melting temperature (Tm) of each treatment group was obtained, and the change value of melting temperature (ATm) was obtained by subtracting the Tm of DMSO solvent control group.

[4] = Plasma stability, dog plasma; type: in vitro ADME; conditions: dog plasma, 37° C.
Protocol: (§1) Animal or human whole blood was collected, then the blood was put into a test tube containing anticoagulant, centrifuged at 3500 rpm for 10 min, and the upper layer of pale yellow plasma was collected. • 2) 10 μM of tested compound (m/M/V=C)
(§2) The compound was weighed, the stock solution was prepared with DMSO and the working solution was prepared with 100 mM phosphate buffer. • 3) 10 μM of positive control • (1) Propantheline (Propantheline Mr=449.4 Da)
(§3) • 1) 285 μL of plasma and 15 μL of 10 μM compound (tested compound) were added in turn in a 96-well plate, and incubated at 37° C. • 2) 40 μL was taken out at 0, 15, 30, 60, 90, 120 min, respectively, and 160 μL of acetonitrile termination solution containing internal standard was added. • 3) After centrifugation (3500 rpm, 10 min), 50 μL of supernatant was taken out, and then diluted with 50 μL DDH2O and injected to LC-MS/MS.
(§4) • instrument: Shimadzu LC-20 AD • chromatographic column: phenomenex Gemiu® C18 (50*4.6 mm, 5 μM particle size); • mobile phase: A: acetonitrile, B: 0.1% formic acid solution 0-8 min: 5% A→95% A, 2.0-2.1 min: 90% A→5% A; flow rate: 0.8 mL/min; running time: 5.0 min; injection volume: 5 μL.
(§5) • instrument: API4000 Liquid Chromatography-Mass Spectrometry, AB, USA; • the ion source was electrospray ionization source (ESI); • the temperature of dry gas (N2) was 500° C.; • electrospray voltage was 5500V; • the detection method was positive ion detection; • the scanning mode was selective response monitoring (MRM); • the scanning time was 0.1 s.

[5] = Plasma stability, rat plasma; type: in vitro ADME; conditions: rat plasma, 37° C.
Protocol: as §1, §2, §3, §4, §5

[6] = Plasma stability, mouse plasma; type: in vitro ADME; conditions: mouse
Protocol: as §1, §2, §3, §4, §5

[7] = Plasma stability, human plasma; type: in vitro ADME; conditions: human
Protocol: as §1, §2, §3, §4, §5

C=CC(=O)N1C[C@H](C)N(c2nc(=O)n(-c3c(SC)ccnc3C(C)C)c3nc(-c4c(N)ccc(Cl)c4F)c(Cl)cc23)C[C@H]1C [Crystal form I of hydroxyethyl sulfonate, P-4-((2S,5R)-4-acryloyl-2,5-dimethylpiperazin-1-yl)-7-(6-amino-3-chloro-2-fluorophenyl)-6-chloro-1-(2-isopropyl-4-(methylthio)pyridin-3-yl)pyrido[2,3-d]pyrimidin-2(1H)-one]
Crystal form of hydroxyethyl sulfonate (XRPD) ([1]; High humidity (25° C., 75%, 10 days)): Crystal form I | Crystal form of hydroxyethyl sulfonate (XRPD) ([1]; High humidity (25° C., 90%, 10 days)): Crystal form I | Crystal form of hydroxyethyl sulfonate (XRPD) ([1]; High temperature (40° C., 30 days)): Crystal form I | Crystal form of hydroxyethyl sulfonate (XRPD) ([1]; High temperature (60° C., 30 days)): Crystal form I | Crystal form of hydroxyethyl sulfonate (XRPD) ([1]; Initial crystal form): Crystal form I | Crystal form of hydroxyethyl sulfonate (XRPD) ([1]; Light (≥1.2 × 10^6 lux-h, 10 days)): Crystal form I | Crystal form of hydroxyethyl sulfonate (XRPD) ([1]; Micropowder): Crystal form I | Solid stability (in words) ([1]; light, high humidity, high temperature, and micropowder conditions): relatively stable | Stability of solid (10 days) (impurity increase %) ([2]; 50° C. & 75% RH): 0.30% | Stability of solid (10 days) (impurity increase %) ([2]; 60° C.): 0.26% | Stability of solid (10 days) (impurity increase %) ([2]; 92.5% RH): 0.01% | Stability of solid (10 days) (impurity increase %) ([2]; Light (5000±500 lux)): 0.27% | Solubility ([3]; FaSSGF): 314.6 µg/mL | Solubility ([3]; FaSSIF): 158.8 µg/mL | Solubility ([3]; FeSSIF): 347.3 µg/mL | Solubility ([3]; H2O): 7.4 µg/mL

C=CC(=O)N1CCN(c2nc(=O)n(-c3c(SC)ccnc3C(C)C)c3nc(-c4c(O)cccc4F)c(F)cc23)[C@@H](C)C1 [Embodiment 1, 4-((S)-4-Acryloyl-2-methylpiperazin-1-yl)-6-fluoro-7-(2-fluoro-6-hydroxyphenyl)-1-(2-isopropyl-4-(methylthio)pyridin-3-yl)pyrido[2,3-d]pyrimidin-2(1H)-one]
Tm (human KRAS G12C protein): 60.2 °C

C=CC(=O)N1C[C@H](C)N(c2nc(=O)n(-c3c(SC)ccnc3C(C)C)c3nc(-c4c(O)cccc4F)c(F)cc23)C[C@H]1C [Embodiment 2, 4-((2S,5R)-4-acryloyl-2,5-dimethylpiperazin-1-yl)-6-fluoro-7-(2-fluoro-6-hydroxyphenyl)-1-(2-isopropyl-4-(methylthio)pyridin-3-yl)pyrido[2,3-d]pyrimidin-2(1H)-one]
Tm (human KRAS G12C protein): 57.2 °C

C=CC(=O)N1CCN(c2nc(=O)n(-c3c(SC)ccnc3C(C)C)c3nc(-c4c(N)cccc4F)c(F)cc23)[C@@H](C)C1 [Embodiment 5, 4-((S)-4-acryloyl-2-methylpiperazin-1-yl)-7-(2-amino-6-fluorophenyl)-6-fluoro-1-(2-isopropyl-4-(methylthio)pyridin-3-yl)pyrido[2,3-d]pyrimidin-2(1H)-one]
Tm (human KRAS G12C protein): 64.4 °C

C=CC(=O)N1CCN(c2nc(=O)n(-c3c(SC)ccnc3C(C)C)c3nc(-c4c(N)ccc(Cl)c4F)c(Cl)cc23)[C@@H](C)C1 [Embodiment 9, 4-((S)-4-acryloyl-2-methylpiperazin-1-yl)-7-(6-amino-3-chloro-2-fluorophenyl)-6-chloro-1-(2-isopropyl-4-(methylthio)pyridin-3-yl)pyrido[2,3-d]pyrimidin-2(1H)-one]
Tm (human KRAS G12C protein): 60.2 °C

C=CC(=O)N1C[C@H](C)N(c2nc(=O)n(-c3c(SC)ccnc3C(C)C)c3nc(-c4c(N)ccc(Cl)c4F)c(Cl)cc23)C[C@H]1C [Embodiment 13, 4-((2S,5R)-4-acryloyl-2,5-dimethylpiperazin-1-yl)-7-(6-amino-3-chloro-2-fluorophenyl)-6-chloro-1-(2-isopropyl-4-(methylthio)pyridin-3-yl)pyrido[2,3-d]pyrimidin-2(1H)-one]
Tm (human KRAS G12C protein): 58.0 °C

CC[C@H](C)C(=O)O[C@H]1C[C@@H](C)C=C2C=C[C@H](C)[C@H](CC[C@@H]3C[C@@H](O)CC(=O)O3)[C@H]21 [Lovastatin, reference compound]
t1/2 [4]: 80.22 min | Residual rate (%) 0 min ([4]; 0 min): 100.00% | Residual rate (%) 15 min ([4]; 15 min): 95.25% | Residual rate (%) 30 min ([4]; 30 min): 95.45% | Residual rate (%) 60 min ([4]; 60 min): 75.66% | Residual rate (%) 120 min ([4]; 120 min): 36.25% | t1/2 [5]: 6.69 min | Residual rate (%) 0 min ([5]; 0 min): 100.00% | Residual rate (%) 15 min ([5]; 15 min): 21.15% | Residual rate (%) 30 min ([5]; 30 min): 1.77% | Residual rate (%) 60 min ([5]; 60 min): 0.36% | Residual rate (%) 120 min ([5]; 120 min): 0.30%

CC(C)[N+](C)(CCOC(=O)C1c2ccccc2Oc2ccccc21)C(C)C [Propantheline, reference compound]
Residual rate (%) 0 min ([6]; 0 min, 0.5 μM): 100.00% | Residual rate (%) 15 min ([6]; 15 min, 0.5 μM): 79.79% | Residual rate (%) 30 min ([6]; 30 min, 0.5 μM): 48.66% | Residual rate (%) 60 min ([6]; 60 min, 0.5 μM): 23.39% | Residual rate (%) 120 min ([6]; 120 min, 0.5 μM): 6.66% | half-life at 0.5 μM ([6]; plasma): 27.7 min | Residual rate (%) 0 min ([7]; 0 min, 0.5 μM): 100.00% | Residual rate (%) 15 min ([7]; 15 min, 0.5 μM): 79.98% | Residual rate (%) 30 min ([7]; 30 min, 0.5 μM): 50.52% | Residual rate (%) 60 min ([7]; 60 min, 0.5 μM): 14.65% | Residual rate (%) 120 min ([7]; 120 min, 0.5 μM): 0.72% | half-life at 0.5 μM ([7]; plasma): 21 min

C=CC(=O)N1C[C@H](C)N(c2nc(=O)n(-c3c(SC)ccnc3C(C)C)c3nc(-c4c(N)ccc(Cl)c4F)c(Cl)cc23)C[C@H]1C [crystal form II of sulfate, P-4-((2S,5R)-4-acryloyl-2,5-dimethylpiperazin-1-yl)-7-(6-amino-3-chloro-2-fluorophenyl)-6-chloro-1-(2-isopropyl-4-(methylthio)pyridin-3-yl)pyrido[2,3-d]pyrimidin-2(1H)-one]
Stability of solid (10 days) (impurity increase %) ([2]; 50° C. & 75% RH, HPLC peak area normalization): 0.15% | Stability of solid (10 days) (impurity increase %) ([2]; 60° C., HPLC peak area normalization): 0.91% | Stability of solid (10 days) (impurity increase %) ([2]; 92.5% RH, HPLC peak area normalization): 0.56% | Stability of solid (10 days) (impurity increase %) ([2]; Light (5000±500 lux), HPLC peak area normalization): 1.12% | Solid stability (in words) ([2]; light, high humidity, high temperature and high humidity conditions): relatively stable | Solubility ([3]; FaSSGF): 386.5 µg/mL | Solubility ([3]; FaSSIF): 150.3 µg/mL | Solubility ([3]; FeSSIF): 383.5 µg/mL | Solubility ([3]; H2O): 13.2 µg/mL

From patent US20240325394A1, “SALT AND CRYSTAL FORM OF NITROGEN-CONTAINING HETEROCYCLIC DERIVATIVE, PREPARATION METHOD THEREFOR AND APPLICATION THEREOF” (SHANGHAI HANSOH BIOMEDICAL CO., LTD., priority 2020, published 2024)
